Laboratory results published in patent US20060263403A1, “Compositions and methods for controlling insects involving the tyramine receptor” (priority 2003, published 2006).
Like-named read-outs stand apart in the source and are kept apart here.

Legend:
[1] = biological target: T1, Drosophila melanogaster tyramine receptor (TyrR) (Drosophila melanogaster, UniProt P22270, C261Y); assay: biochemical; assay type: binding
T1 construct: The open reading frame encodes a protein of 601 amino acids; expressed in transfected cells
T1 sequence (P22270 27-601 C261Y): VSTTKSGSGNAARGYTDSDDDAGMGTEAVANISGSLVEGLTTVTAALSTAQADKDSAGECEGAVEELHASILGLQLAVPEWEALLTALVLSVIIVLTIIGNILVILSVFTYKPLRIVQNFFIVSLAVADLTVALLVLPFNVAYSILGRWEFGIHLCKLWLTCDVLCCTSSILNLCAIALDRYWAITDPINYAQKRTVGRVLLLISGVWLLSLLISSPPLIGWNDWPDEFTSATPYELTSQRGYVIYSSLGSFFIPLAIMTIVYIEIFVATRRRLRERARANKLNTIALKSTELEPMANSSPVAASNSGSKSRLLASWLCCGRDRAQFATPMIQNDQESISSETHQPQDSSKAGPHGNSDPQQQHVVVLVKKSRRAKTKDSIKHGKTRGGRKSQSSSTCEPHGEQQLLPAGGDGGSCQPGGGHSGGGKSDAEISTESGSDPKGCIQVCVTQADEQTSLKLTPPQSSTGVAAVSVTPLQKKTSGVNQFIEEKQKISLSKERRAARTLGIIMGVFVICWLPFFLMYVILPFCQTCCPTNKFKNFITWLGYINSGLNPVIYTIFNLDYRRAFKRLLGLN
Description: All steps are performed at 4° C. or on ice. Cells grown in Drosophila media are harvested in the same media by scraping from the dishes and then rinsing dishes with PBS. The cells are centrifuged at 1000 g for 3 min, washed once with PBS and centrifuged again as previously described. The cells are suspended in ice cold hypotonic buffer (10 mM Tris-Cl, pH 7.4), incubated on ice for 10 min, and lysed using a glass dounce homogenizer and tight glass pestle (Kontes Glass Co., Vineland, N.J.) with 10 strokes. Nuclei are pelleted by centrifugation at 600 g for 5 min. The supernatant is decanted and centrifuged at 30,000 g for 30 min to pellet a crude membrane fraction. The pellet is suspended in binding buffer (50 mM Tris-Cl, 5 mM MgCl2, pH 7.4). Protein concentration is determined by the Bradford Assay (Bio-Rad Laboratories, Hercules, Calif.). Membranes are frozen on dry ice then stored at −75° C. in aliquots.
For the receptor binding assay, radioligand binding is performed in 500 μl binding buffer containing 10-50 μg membrane protein and 4 nM ^3H-tyramine. The binding reaction is incubated at 23° C. in the presence and absence of 10 μM unlabeled tyramine. Reactions are terminated after 60 min by addition of 3 ml ice cold binding buffer and filtered over GF/C filters that has been soaked for 30 min in 0.3% polyethylenimine. Filters are rinsed one additional time with 3 ml binding buffer. […] The binding activity of tyramine receptor is also studied in the presence and absence of five plant essential oils, shown in FIG. 1. Binding data is analyzed by Scatchard plots using the software GraphPad Prism (San Diego, Calif.). All binding analyses are performed 3 times with duplicate samples in each assay.
The binding activity of ^3H-tyramine to membranes expressing the tyramine receptor is performed in the presence and absence of five plant essential oils. These chemicals are selected based on their insecticidal activity and the absence or presence and location of the hydroxyl group within the molecule. […] The specific activity is calculated as the difference between counts in the presence and absence of test chemical.

[2] = biological target: T1, Drosophila melanogaster tyramine receptor (TyrR); assay: Intracellular calcium assay (Fura-2 AM) in S2 cells stably expressing pAC-TyrR; assay type: cell-based; conditions: for change in [Ca2+]i in response to plant essential oil: 25 μM, compared to EtOH treatment
Description: (§1) Cells are washed once with insect saline buffer. Cells are collected by scraping and suspended at 1×10^6 cells/ml in insect saline buffer with 5 μM Fura-2 AM. Cells are incubated at 23° C. for 1 hr in the dark, centrifuged, suspended in 1 ml insect saline buffer, and used immediately for calcium measurements. […] This assay is performed four separate times. Data are normalized by dividing each value by the background fluorescence at the beginning of the assay before adding test ligand.

[3] = biological target: T1, Drosophila melanogaster tyramine receptor (TyrR); assay: cell-based; assay type: cell-based; conditions: for decrease in cAMP production: 25 μM, vs ethanol-treated cells 0.9056±0.078 pmol cAMP
Description: (§2) Twenty four hours before cell treatment, 300,000 cells from clone#2 and control cells are plated in 1 ml media with 25 μg blasticidin/ml into 12 well dishes (4.5 cm^2). For cell treatment, the media is aspirated and 1 ml PBS with 300 μM IBMX (3-isobutyl-1-methylxanthine) and the test reagent is added. […] After 10 min incubation, the PBS is aspirated and cells are incubated with 70% ethanol for 12 hours at −20° C. The cellular debris is centrifuged, and then the supernatant is removed and lyophilized to dryness. The amount of cAMP in the extract is determined by using a cAMP binding protein from the ^3H-cAMP Biotrak Assay System (Amersham Biosciences, Piscataway, N.J.) as per the manufacturer's instructions. Cell treatment is performed 3 times with duplicates at each concentration. To test the effects of calcium chelation on cAMP levels, the cells are incubated with 20 μM BAPTA/AM for 10 min before the addition of TA.

[4] = tested on: tyramine receptor mutant (TyrR^neo30) Drosophila melanogaster; assay type: in vivo; conditions: for toxicity against TyrR^neo30 strain compared with wild type: topical application
Description: (§3) Quantitative Structure Activity Relationships (QSARs) for five monoterpenoid plant essential oils is determined against wild type and tyramine receptor mutant (TyrR^neo30) Drosophila melanogaster strains. […] In addition, monocyclic-unsaturated alcohol (a-terpenoil), and a monocylic di-unsaturated ketone (L-carvone) are also tested. […] Acetonic solutions of plant essential oils are prepared and different concentrations of each, that gave from 10%-100% mortality, are applied by topical application. Three replicates, with 5 flies per replicate, are used for each concentration. Controls treated with the same volume (0.5 μl/fly) of acetone. […] To determine whether the tyramine receptor is involved in the toxicity of tested plant essential oils, tyramine receptor mutant (TyrR^neo30) Drosophila melanogaster strain is topically treated with a dose equivalent to the determined LD50 for wild type strain. The mortality is calculated 24 hrs after treatment. Three replicates and 5 insects per replicate are used for the bioassay of each chemical. This bioassay is repeated five times.

[5] = tested on: wild type Drosophila melanogaster; assay: Topical toxicity bioassay against wild type Drosophila melanogaster fly; assay type: in vivo; conditions: for Wild type-calculated LD50 values: topical application, probit analysis; for % Mortality at LD50 of wild type Drosophila melanogaster strain: Wild type: topical dose equal to wild type LD50, 24 h after treatment
Description: as §3

[6] = tested on: S2 cells transfected with plasmid lacking TyrR; assay: cAMP assay in control S2 cells transfected with plasmid lacking TyrR; assay type: cell-based, Drosophila melanogaster; conditions: TA up to 100 μM, compared to non-transfected cells
Description: as §2

[7] = tested on: S2 cells transfected with pAC lacking an insert; assay: Intracellular calcium assay in S2 cells transfected with pAC lacking an insert; assay type: cell-based, Drosophila melanogaster; conditions: 10 μM TA, compared to untransfected S2 cells
Description: as §1

[8] = biological target: T1, Drosophila melanogaster tyramine receptor (TyrR); conditions: saturation binding, 0.1-30 nM 3H-tyramine, membranes of clone#2 S2 cells; read-out: Kd for specific binding

Work on `NCC(O)c1ccc(O)cc1` (racemic) [Octopamine (OA), DL-octopamine] yielded a Ki ([1]; competitive binding vs 4 nM 3H-tyramine, membranes from Schneider Drosophila cells expressing TyrR, mean and standard deviation, read-out: Ki) of 28.7 µM.

In the case of `CC(=O)OCOC(=O)CN(CC(=O)OCOC(C)=O)c1ccccc1OCCOc1ccccc1N(CC(=O)OCOC(C)=O)CC(=O)OCOC(C)=O` [BAPTA/AM], the “effect on TA-induced increase in free [Ca2+]i” value ([2]; 20 μM BAPTA/AM, 1 μM TA) is reported as “inhibit the increase in free [Ca^2+]i”.

`CN(C)CCCN1c2ccccc2Sc2ccc(Cl)cc21` [Chlorpromazine] gave a Ki [1] of 0.193 ± 0.05 µM.

For `NCCc1ccc(O)c(O)c1` [Dopamine (DA), Dopamine], the Ki [1] was 57.5 ± 3.91 µM.

Molecule `NCCc1c[nH]cn1` [Histamine (His), Histamine] has a Ki [1] of 193 ± 16.8 µM.

For `C=C(C)[C@@H]1CC=C(C)C(=O)C1` [L-carvone, p-mentha-6,8-dien-2-one], the “decrease in cAMP production” value ([3]; 300 μM IBMX) was 24%, the “toxicity against TyrR^neo30 strain compared with wild type” value [4] was “does not affect the toxicity” and the “% Mortality at LD50 of wild type Drosophila melanogaster strain: TyrR^neo30” value ([4]; topical dose equal to wild type LD50, 24 h after treatment) was 38.7%. For the same molecule, the “Wild type-calculated LD50 values” [5] was 2.3 μg/fly, the “% Mortality at LD50 of wild type Drosophila melanogaster strain: Wild type” value [5] was 37.3% and the “toxicity of L-carvone relative to a-terpineol” value ([5]; wild type strain) was “about 5 fold”. For the same molecule, the “change in [Ca2+]i in response to plant essential oil” value (from here on “change … to plant essential oil”) [2] was “remarkable increase in [Ca^2+]i”.

`Cc1ccc(N(CC2=NCCN2)c2cccc(O)c2)cc1` [Phentolamine] was tested, and the Ki [1] was 0.125 ± 0.02 µM.

`NCCc1c[nH]c2ccc(O)cc12` [Serotonin (SE), Serotonin] gave a Ki [1] of 89.5 ± 9.01 µM.

With `NCCc1ccc(O)cc1` [Tyramine (TA), Tyramine] the IC50 [3] was 5.8 µM, the “decrease in the basal level of cAMP” value ([3]; TA 10 μM, 300 μM IBMX, basal 0.601±0.080 pmol cAMP) was 18% and the “effect on cAMP levels in control cells” value [6] was “significant effects on cAMP levels as compared to non-transfected cells are not produced”. For the same molecule, the “effect on [Ca2+]i in control cells” value [7] was “does not increase the level of [Ca^2+]i”, the Ki [1] was 1.27 µM and the “affinity of TA relative to DL-octopamine for TyrR” value ([1]; ratio of Ki values) was “about 22.58 fold”. The “change in [Ca2+]i in response to TA” value ([2]; 1 μM TA, clone#2 cells) was “rapid increase in [Ca^2+]i”, the “duration of transient peak in [Ca2+]i level” value ([2]; TA application) was about 20 s and the “lowest concentration that can increase [Ca2+]i levels” value ([2]; clone#2 cells) was 20 nM.

`COC(=O)[C@@H]1[C@H]2C[C@H]3c4[nH]c5ccccc5c4CCN3C[C@@H]2CC[C@@H]1O` [Yohimbine] gave a Ki [1] of 0.071 ± 0.001 µM.

`NCCc1ccc(O)cc1` [^3H-tyramine] showed a Kd [8] of 0.00256 µM.

With `CC1=CCC(C(C)(C)O)CC1` (stereo not drawn) [a-terpineol, p-menth-1-en-8-ol] the “decrease in cAMP production” value ([3]; 300 μM IBMX) was 22% and the “change … to plant essential oil” value [2] was “remarkable increase in [Ca^2+]i”.

For `Cc1ccc(C(C)C)cc1` [p-cymene, 1-methyl-4-(1-methylethyl)benzene], the “decrease in cAMP production” value ([3]; 300 μM IBMX) was 13%, the “% Mortality at LD50 of wild type Drosophila melanogaster strain: TyrR^neo30” value ([4]; in vivo) was 56.0% and the “toxicity against TyrR^neo30 strain compared with wild type” value [4] was “does not affect the toxicity”. The “Wild type-calculated LD50 values” [5] was 15.5 μg/fly, the “% Mortality at LD50 of wild type Drosophila melanogaster strain: Wild type” value [5] was 57.3% and the “change … to plant essential oil” value [2] was “slight increase in [Ca^2+]i”.
